The record followed here is BindingDB's records for doi:10.1016/j.chembiol.2003.08.010 (Brigham and Women's Hospital, 2003).

For experiment [1], the target named is T1, Ubiquitin carboxyl-terminal hydrolase isozyme L1 (Mus musculus, UniProt Q9R0P9).
T1 sequence (Q9R0P9 whole entry): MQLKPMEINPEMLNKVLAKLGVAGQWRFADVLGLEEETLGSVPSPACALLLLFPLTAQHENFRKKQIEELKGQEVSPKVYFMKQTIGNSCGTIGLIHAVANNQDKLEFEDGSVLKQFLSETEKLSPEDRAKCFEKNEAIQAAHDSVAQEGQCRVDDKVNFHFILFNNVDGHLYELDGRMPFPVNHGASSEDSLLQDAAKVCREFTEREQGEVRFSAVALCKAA
The experiment can be described thus: Inhibition Activity Assay. The note with it: pH 7.6; 25 °C. From the text:
(§1) Inhibition activity and selectivity for UCH-L1 and UCH-L3.

The target of experiment [2] is T2, Ubiquitin carboxyl-terminal hydrolase isozyme L3 (Mus musculus, UniProt Q9JKB1).
T2 sequence (Q9JKB1 whole entry): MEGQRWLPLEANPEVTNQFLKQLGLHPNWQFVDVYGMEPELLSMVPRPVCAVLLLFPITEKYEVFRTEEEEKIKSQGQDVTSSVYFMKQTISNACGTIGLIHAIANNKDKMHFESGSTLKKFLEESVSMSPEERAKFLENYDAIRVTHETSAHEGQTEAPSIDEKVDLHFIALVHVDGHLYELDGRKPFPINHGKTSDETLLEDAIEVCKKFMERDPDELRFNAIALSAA
The experiment can be described thus: Inhibition Activity Assay. The note with it: pH 7.6; 25 °C.
Description: as §1

Broadly, the IC50 is the concentration at which inhibition is half-maximal. On to `CCN(CC)c1nc(Nc2ccc([N+](=O)[O-])cc2)nc(N(CC)CC)n1` [2-N,2-N,4-N,4-N-tetraethyl-6-N-(4-nitrophenyl)-1,3,5-triazine-2,4,6-triamine], for which the IC50 in experiment [1] came out at 2.9 µM; in experiment [2], 18 µM.

Consider `COc1ccccc1-c1cc(-c2ccccc2)nc(SCC(=O)O)c1C#N` [2-[[3-cyano-4-(2-methoxyphenyl)-6-phenyl-2-pyridinyl]thio]acetic acid], for which the results for the IC50 in experiment [1] and in experiment [2] were 0.94 µM and 23 µM, respectively.

For `c1ccc(-c2nc(C3CCCCC3)c3ccccc3n2)cc1` [4-Cyclohexyl-2-phenyl-quinazoline], the IC50 in experiment [1] came to 75 µM; in experiment [2], 0.6 µM.

Turning to `COc1ccc(NC(=O)c2[nH]cnc2C(=O)N[C@@H](CC(C)C)C(=O)OC(C)(C)C)cc1` [(2S)-2-[[4-[(4-methoxyphenyl)carbamoyl]-1H-imidazole-5-carbonyl]amino]-4-methyl-valeric acid tert-butyl ester], the IC50 in experiment [1] stood at 27 µM; in experiment [2] it was 48 µM.

In the case of `CC(C)(C)OC(=O)NCCCC[C@H](NC(=O)c1[nH]cnc1C(=O)Nc1ccc(Cl)cc1)C(=O)OC(C)(C)C` [(2S)-2-[[[4-[(4-chloroanilino)-oxomethyl]-1H-imidazol-5-yl]-oxomethyl]amino]-6-[[(2-methylpropan-2-yl)oxy-oxomethyl]amino]hexanoic acid tert-butyl ester], the concentration for half-maximal inhibition (IC50) in experiment [1] amounted to 19 µM; in experiment [2] it was 58 µM.

Consider `Cc1ccc(NC(=O)c2[nH]cnc2C(=O)N[C@@H](CCCCNC(=O)OC(C)(C)C)C(=O)OC(C)(C)C)cc1` [(2S)-6-(tert-butoxycarbonylamino)-2-[[4-(p-tolylcarbamoyl)-1H-imidazole-5-carbonyl]amino]hexanoic acid tert-butyl ester], for which the IC50 in experiment [1] came out at 6 µM; in experiment [2] it was 32 µM.

On to `CCC1=NN(C(=O)c2ccccc2O)C(O)(c2ccccc2)C1` (centres undefined) [(3-ethyl-5-hydroxy-5-phenyl-4H-pyrazol-1-yl)-(2-hydroxyphenyl)methanone], for which the IC50 in experiment [1] is 3.4 µM; in experiment [2] it was 72 µM.

With `Oc1ccc(Oc2ccc(Oc3ccc(O)cc3)cc2)cc1` [MLS001162917], the results for the IC50 in experiment [1] and in experiment [2] were 3.4 µM and 47 µM, respectively.

In the case of `CCCCn1c(=O)c(C(=O)NCc2ccccc2Cl)c(O)c2ccccc21` [MLS001202596], the values for the IC50 in experiment [1] and in experiment [2] were 17 µM and 41 µM, respectively.

On to `Cc1nc(N=NC(C)c2ccc(Br)cc2)cc(N2CCCCC2)n1` (centres undefined) [N-[1-(4-bromophenyl)ethylideneamino]-2-methyl-6-piperidin-1-ylpyrimidin-4-amine], for which the IC50 in experiment [1] is 2.6 µM; in experiment [2], 16 µM.

For the molecule `COc1ccc(N(CC(=O)NCCSCc2cccc(Cl)c2)S(C)(=O)=O)cc1Cl` [N-[2-[(3-chlorobenzyl)thio]ethyl]-2-(3-chloro-N-mesyl-4-methoxy-anilino)acetamide], the IC50 came to 1.3 µM in experiment [1] and 22 µM in experiment [2].

Turning to `CC(C)(C)OC(=O)[C@H](Cc1ccccc1)NC(=O)c1[nH]cnc1C(=O)Nc1ccc(Cl)cc1` [SMR000465882], the IC50 in experiment [1] amounted to 16 µM; in experiment [2], 24 µM.

`COc1ccc(-n2c(C=Cc3ccc(O)c(OC)c3)nc3ccccc3c2=O)cc1` [SMR000516541]: the IC50 in experiment [1] came to 12 µM; in experiment [2] it was 52 µM.

As to `CC1=CC(=O)c2ccccc2C1=O` [Vitamin K3], the values for the IC50 in experiment [1] and in experiment [2] were 290 µM and 71 µM, respectively.

As to `Cc1cccc(NC(=O)c2nc[nH]c2C(=O)N[C@@H](CC(C)C)C(=O)OCc2ccccc2)c1` [benzyl (2S)-4-methyl-2-[[4-[(3-methylphenyl)carbamoyl]-1H-imidazole-5-carbonyl]amino]pentanoate], the IC50 in experiment [1] amounted to 12 µM; in experiment [2], 33 µM.

In the case of `CCOC(=O)C1=C(C)N=c2s/c(=C\c3ccc(O)c([N+](=O)[O-])c3)c(=O)n2C1c1ccccc1OC` (centres undefined) [ethyl 2-[(4-hydroxy-3-nitrophenyl)methylidene]-5-(2-methoxyphenyl)-7-methyl-3-oxo-5H-[1,3]thiazolo[3,2-a]pyrimidine-6-carboxylate], the IC50 in experiment [1] came to 1.8 µM; in experiment [2] it was 40 µM.

Take `Cc1cccc(NC(=O)c2nc[nH]c2C(=O)N[C@@H](Cc2ccccc2)C(=O)OC(C)(C)C)c1` [tert-butyl (2S)-2-[[4-[(3-methylphenyl)carbamoyl]-1H-imidazole-5-carbonyl]amino]-3-phenylpropanoate]: the IC50 came out at 12 µM in experiment [1] and 52 µM in experiment [2].
